One series relates to Caspase-3. Description: Western blot of hypoxia-induced signaling, BV-2: Caspase-3. To be noted: BV-2 cells, 10 min hypoxia, BBD 20 μM. Format: cell-based, murine. The method, then: (§1) On the day of experiment, culture media were replaced with glucose-free DMEM, then, gassed with 85% N2, 10% H2, and 5% CO2 for various time periods in the absence or presence of various doses of BBD.
(§2) Samples containing 25 μg of protein were separated on 12.5% (w/v) sodium dodecyl sulfate-polyacrylamide gels, and transferred to immobilon polyvinylidenedifluoride membranes (Millipore, Bedford, USA). The membranes were incubated for 2 h with 5% (w/v) dry skim milk in TBST buffer to block non-specific binding, then ERK, p38 JNK, AKT-1, COX-2, caspase-3, β-actin proteins for neuron cells were detected by a chemiluminescence detection system according to the manufacturer’s instructions (ECL, Amersham, Berkshire, UK).
A general note: A western blot detects proteins with antibodies after separation by electrophoresis.

In the next series the test system is JNK. Description: Western blot of hypoxia-induced signaling, BV-2: JNK. Format: cell-based, murine. To be noted: BV-2 cells, 10 min hypoxia, BBD 20 μM. How it is done: as §1, §2
The next series has as its system p38. Nature of the series: Western blot of hypoxia-induced signaling, BV-2: p38. To be noted: BV-2 cells, 10 min hypoxia, BBD 20 μM. Format: cell-based, murine. How it is done:
as §1, §2

Another series has as its system neurons. Nature of the series: Toxicity of BBD alone to neurons. Format: cell-based. Particulars: BBD 100 μM alone, data not shown.
In the next series the test system is focal cerebral ischemia. Nature of the series: Focal cerebral ischemia (MCAO), infarct size by TTC staining. Particulars: SD rats, BBD 10 mg/kg i.p. 90 min after MCAO; ischemia group 16.1%. Format: in vivo, Sprague–Dawley rats. The method, then:
Twenty-four male Sprague-Dawley (SD) rats (200~250 gm) were purchased from National Animal Center, Taipei, Taiwan and randomly divided into the control (normal saline), and BBD groups. The experiment was approved by Institutional Animal Care and Use Committee, Taichung Veterans General Hospital (IACUC LA-97490). Rats were injected intraperitoneally (i.p.) with BBD (10 mg/kg) 90 min after MACO experiment. Each SD rat was anesthetized with chlorohydrate (400 mg/kg) i.p. and its body temperature was maintained at 37°C with a heating pad (CMA/150). A midline neck incision was made and the right carotid artery was exposed and separated from the vago-sympathetic trunk. The right carotid artery was loosely encircled with a 4-O suture for later occlusion. The SD rat's head was placed in a stereotaxic frame (David Kopf, CA, USA) with the nose bar positioned 4.0 mm below the horizontal line. Following a midline incision, the skull was partially removed to expose the right middle cerebral artery. The middle cerebral artery was loosely encircled with an 8-O suture for later occlusion. A focal cerebral ischemia was induced by occlusion of the right common carotid artery and the right cerebral artery (MCAO) for 60 min, followed by reperfusion. […]

The test system of another series is ERK. Nature of the series: Western blot of hypoxia-induced signaling, BV-2: ERK. Format: cell-based, murine. Particulars: BV-2 cells, 10 min hypoxia, BBD 20 μM. How it is done: as §1, §2
The test system of another series is IL-6. Nature of the series: Hypoxia-induced IL-6 production (ELISA), BV-2. Format: cell-based, murine. The method, then:
as §1
Cytokines (IL-1β, IL-6) and PGE2 were measured using ELISA kits (R&D, Minneapolis, MN, USA). The absorbance at 450 nm was determined using a microplate reader (spectraMAX 340).
In general terms: In an ELISA, binding on a coated surface is turned into a signal by an enzyme label.

The test system of series [1] is COX-2. Description: Western blot of hypoxia-induced signaling, BV-2: COX-2. The class given is cell-based, murine. To be noted: BV-2 cells, 10 min hypoxia, BBD 20 μM. How it is done: as §1, §2
The next series concerns ROS in PC12 cells. Description: Hypoxia-induced ROS generation (DCF), PC12. The class given is cell-based, rat. Particulars: hypoxia 30 min, BBD 1, 10, 20 μM. The method, then: as §1
Intracellular accumulation of ROS was determined using H2DCF-DA, which is a nonfluorescent compound that accumulates in cells following deacetylation. H2DCF then reacts with ROS to form fluorescent dichlorofluorescein (DCF). PC12 cells were plated in 96-well plates and grown for 24 h before addition of DMEM plus 10 μM H2DCF-DA, incubated for 60 min at 37°C, and treated with various concentrations of BBD for hypoxia 30 min. Cells were then washed twice at room temperature with Hank’s balanced salt solution (HBSS without phenol red). Cellular fluorescence was monitored on a Fluoroskan Ascent fluorometer (Labsystems Oy, Helsinki, Finland) using an excitation wavelength of 485 nm and emission wavelength of 538 nm.

Series [2] in a line: PAMPA-BBB membrane permeability assay. The method, then: The blood–brain barrier limits drug access into the brain, due to tight junctions, membrane drug transporters, and unique lipid composition. Porcine whole-brain lipid is successfully used in passive permeability test for CNS drugs.
The parallel artificial membrane permeation assay (PAMPA) was carried out in a sandwich-like 96-well PAMPA plate formed by a top filter plate containing acceptor wells and a bottom plate containing donor wells. Each composite well was divided into two chambers: 300 μl of donor solution (test article or QC standards) at the bottom and 200 μl of acceptor buffer (PBS buffer containing 5% DMSO) at the top, separated by a polyvinylidene fluoride (PVDF, 0.45 μm pore size) membrane, coated with 4 μl of 20 mg/ml porcine polar brain lipid (PBL) in n-dodecane. […] The final DMSO concentration in working stock solution is 5%. Each compound was performed in triplicate. The test compound diffused from the donor well through the lipid membrane and into the acceptor well. The sandwich plate was placed with the plate lid and incubated at room temperature for approximately 18 h. After reaching diffusion equilibration, the PAMPA sandwich plate was disassembled and the concentration of drug in the acceptor, the donor, and the reference wells was determined using a TECAN microplate reader (Durham, NC, USA).
(In PAMPA a lipid-coated filter parts donor from acceptor wells.)

The subject of series [3] is COX-2. Nature of the series: Western blot of hypoxia-induced signaling, PC12: COX-2. Format: cell-based, rat. Particulars: PC12 cells, 10 min hypoxia (Figure 5C), BBD 20 μM. The method, then: as §1, §2

For `COc1cccc(CC(CO)C(CO)Cc2cccc(OC)c2)c1` (stereo not shown) [BBD, 3-bis (3-methoxybenzyl) butane-1,4-diol], in the series on Caspase-3, the “reduced expression of Caspase-3” value worked out at 50 ± 7%. The “reduced expression of JNK” value in the series with JNK worked out at 88 ± 6%. For the same compound, in the series with p38, the “reduced expression of p38” value was -8 ± 10%. Also, the toxicity to neurons result with neurons is listed as “not toxic”. The same compound yielded an infarct size with focal cerebral ischemia of 4.9%. The “reduced expression of ERK” value with ERK stood at 10 ± 7%. For the same compound, in the series on IL-6 (BV-2 cells, hypoxia 30 min, BBD 1, 10, 20 μM), the “hypoxia-induced IL-6 production” value is on record as “dose-dependently decreased”. The “inhibition of hypoxia-induced IL-6 production” value with IL-6 (hypoxia, concentration not given) is 40-50%. Further, in the series with COX-2 [1], the “reduced expression of COX-2” value is given as 13 ± 7%. In addition, the “hypoxia-induced ROS accumulation (DCF signal)” value in the series with ROS in PC12 cells is “decreasing the ROS accumulation”. Moreover, the Classification result in [2] (PAMPA-BBB predicted BBB permeation class) is recorded as “BBB+ (BBB + compound (high BBB permeation predicted): Pe (10^-6 cm s^-1) > 4.0)”. In [2] (pig, PAMPA, pH 7.4), the Papp at 100 μg/ml turned out to be 20.9 ± 3.05 ×10⁻⁶ cm/s. Also, in the series with COX-2 [3], the “suppressed hypoxia induced expression of COX-2” value was determined as 75 ± 11%.

In general, Papp refers to a coefficient for how fast a substance crosses the barrier. Lower therefore signals slow passage.
